In general, inhibition refers to the percentage by which the read-out fell short of the control. Read a low inhibition as a weak effect.

For this experiment, the target named is T1, MAPK9 (JNK2) (Homo sapiens, UniProt P45984).
T1 construct: purchased Thermo Fisher Scientific (Life Technologies) SelectScreen
The experiment in a line: SelectScreen Z'LYTE. The experiment is classed as biochemical. Particulars: ATP 100 µM. The gist of the method: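 Percent values come from Thermo SelectScreen profiling of NU5455, combining activity and binding assays. CSF1R was run in Z'LYTE format at Km app ATP, and CAMK1 in Adapta format with ATP listed at 10.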

T1 sequence (P45984 whole entry): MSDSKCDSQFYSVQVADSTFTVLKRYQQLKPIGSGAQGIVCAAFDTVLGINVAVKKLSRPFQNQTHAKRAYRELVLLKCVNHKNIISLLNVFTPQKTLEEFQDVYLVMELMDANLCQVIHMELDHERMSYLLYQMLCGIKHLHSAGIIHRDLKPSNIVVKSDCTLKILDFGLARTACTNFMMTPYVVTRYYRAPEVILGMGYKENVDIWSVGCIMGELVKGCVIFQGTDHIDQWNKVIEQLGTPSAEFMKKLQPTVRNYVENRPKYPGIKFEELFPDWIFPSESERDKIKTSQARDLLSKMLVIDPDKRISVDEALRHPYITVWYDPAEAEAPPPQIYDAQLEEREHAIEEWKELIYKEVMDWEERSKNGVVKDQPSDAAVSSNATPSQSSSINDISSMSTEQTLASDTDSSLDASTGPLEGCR

`CN(C(=O)CN1CCOCC1)c1ccc2sc3c(-c4cccc5c(=O)cc(N6CC7CCC(C6)O7)oc45)cccc3c2c1` [NU5455] displayed an inhibition at 1 µM of 2.8%.

Source of the values: publication PMC6934184, “Selective DNA-PKcs inhibition extends the therapeutic index of localized radiotherapy and chemotherapy” (The Journal of Clinical Investigation, 2019).
